What was measured:
caspase-1 = target: T1, caspase-1 (Homo sapiens, UniProt P29466); test: Caspase-1 enzyme inhibition (Ki, method of Margolin et al.); assay type: biochemical; settings: Suc-YVAD-pNA substrate 80 μM, 37° C., pH 7.5; read-out: Ki C1
T1 sequence (P29466 120-297 limits assumed): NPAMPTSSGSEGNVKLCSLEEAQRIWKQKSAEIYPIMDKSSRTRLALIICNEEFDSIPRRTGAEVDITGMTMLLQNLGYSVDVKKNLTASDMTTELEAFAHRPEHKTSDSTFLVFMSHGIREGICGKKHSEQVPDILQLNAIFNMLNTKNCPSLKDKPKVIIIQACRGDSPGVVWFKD
T1 sequence (P29466 317-404 limits assumed): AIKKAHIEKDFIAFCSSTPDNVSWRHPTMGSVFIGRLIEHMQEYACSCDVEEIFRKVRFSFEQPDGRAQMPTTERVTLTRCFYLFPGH
Description: (§1) Compounds of this invention may be tested using the methods described below.
(§2) In Vitro Assays Enzyme Inhibition
(§3) Ki values for test compounds with caspase-1 and caspase-8 were obtained by the method of Margolin et al. (J. Biol. Chem., 272 pp. 7223-7228 (1997)). Other caspases may be assayed similarly (see, e.g., WO 99/47545). Assays were performed in 10 mM Tris (Sigma Corp, St Louis Mo.) pH 7.5, 1 mM Dithiothreitol (DTT, Research Organic INC, Cleveland, Ohio) and 0.1% CHAPS (Pierce, Rockford Ill.) at 37° C. For caspase-3, a solution of 8% glycerol was added to the assay buffer to improve enzyme stability. A 65 μL aliquot of the assay buffer and 5 μL aliquot of the appropriate dilutions of inhibitor in DMSO where pipetted into a 96 well plate, treated with 10 μL of caspase, then diluted in assay buffer (0.5-40 nM active protein by active site titration). A control containing DMSO but no compound was included for each determination. The plates were then incubated for 15 minutes at 37° C., before addition of the appropriate substrate (20 μL, final concentration 1-4×KM, final assay volume 100 μL) to initiate the reaction. Reaction rates were measured at 37° C. either by following the time dependant increase in absorbance at 405 nm (for the pNA substrates) or in fluorescence (Ex 390, Em 460) (for the AMC substrates). The rates obtained were plotted against inhibitor concentration and the data fit to the Morrison tight-binding equation for competitive inhibitors (Morrison, J. F., Biochem. Biophys. Acta, 185 pp. 269-286 (1969)). The substrates used for the individual assays were as follows:
Caspase-1 Suc-YVAD-pNA (Bachem, King of Prussia, Pa.) (final concentration in the assay 80 μM);

caspase-8 = caspase-8 (Homo sapiens, UniProt Q14790); test: Caspase-8 enzyme inhibition (Ki, method of Margolin et al.); assay type: biochemical; settings: Ac-DEVD-pNA substrate 80 μM, 37° C., pH 7.5; read-out: Ki C8
Description: as §1, §2, §3
Caspase-8 Ac-DEVD-pNA (Bachem, King of Prussia, Pa.) (final concentration in assay 80 μM).

Sequence of caspase-8 (Q14790 217-374 limits assumed, species assumed): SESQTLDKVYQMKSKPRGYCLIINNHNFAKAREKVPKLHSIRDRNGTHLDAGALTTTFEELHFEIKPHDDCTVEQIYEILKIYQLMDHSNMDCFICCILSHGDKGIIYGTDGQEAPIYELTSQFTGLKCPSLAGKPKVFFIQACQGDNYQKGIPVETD
Sequence of caspase-8 (Q14790 385-479 limits assumed, species assumed): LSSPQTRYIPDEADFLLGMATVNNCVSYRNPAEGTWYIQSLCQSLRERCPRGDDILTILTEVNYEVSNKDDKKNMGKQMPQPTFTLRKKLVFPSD

| SMILES | Ki (caspase-1) [nM] | Ki (caspase-8) [nM] |
| --- | --- | --- |
| Cc1cccc(C)c1C(=O)N[C@H](C(=O)N1CCC[C@H]1C(=O)N[C@H](C=O)CC(=O)O)C(C)C [II-14, (S,S,S)-(3S)-({1-[(2S)-(2,6-Methyl-benzoylamino)-3-methyl-butyryl]-pyrrolidine-(2S)-carbonyl}-amino)-4-oxo-butyric acid] | 10 to 20 | < 10 |
| COc1cccc(C(=O)N[C@H](C(=O)N2C3CC[C@@H](C3)[C@H]2C(=O)N[C@H](C=O)CC(=O)O)C(C)C)c1F (stereo in doubt) [II-61, (3S)-({2-[(2S)-(2-Fluoro-3-methoxy-benzoylamino)-3-methyl-butyryl]-2-(1S,4R)-aza-bicyclo[2.2.1]heptane-(3S)-carbonyl}-amino)-4-oxo-butyric acid] | < 10 | < 10 |
| Cc1c(Cl)cccc1C(=O)N[C@H](C(=O)N1CCC[C@H]1C(=O)N[C@H](C=O)CC(=O)O)C(C)C [II-10, (S,S,S)-(3S)-({1-[(2S)-(3-Chloro-2-methyl-benzoylamino)-3-methyl-butyryl]-pyrrolidine-(2S)-carbonyl}-amino)-4-oxo-butyric acid] | < 10 | 10 to 20 |
| CC(=O)Nc1ccc(C(=O)N[C@H](C(=O)N2CCC[C@H]2C(=O)N[C@H](C=O)CC(=O)O)C(C)(C)C)c(F)c1 [II-44, (S,S,S)-(3S)-({1-[(2S)-(2-fluoro-4-acetamido-benzoylamino)-3,3-dimethyl-butyryl]-pyrrolidine-(2S)-carbonyl}-amino)-4-oxo-butyric acid] | < 10 | < 10 |
| CC(C)[C@H](NC(=O)c1c(Cl)cccc1Cl)C(=O)N1CCC[C@H]1C(=O)N[C@H](C=O)CC(=O)O [II-13, (S,S,S)-(3S)-({1-[(2S)-(2,6-Dichloro-benzoylamino)-3-methyl-butyryl]-pyrrolidine-(2S)-carbonyl}-amino)-4-oxo-butyric acid] | 10 to 20 | 10 to 20 |
| CC(C)[C@H](NC(=O)c1cccc(Cl)c1Cl)C(=O)N1CCC[C@H]1C(=O)N[C@H](C=O)CC(=O)O [II-8, (S,S,S)-(3S)-({1-[(2S)-(2,3-Dichloro-benzoylamino)-3-methyl-butyryl]-pyrrolidine-(2S)-carbonyl}-amino)-4-oxo-butyric acid] | < 10 | 10 to 20 |
| Cc1ccncc1C(=O)N[C@H](C(=O)N1CCC[C@H]1C(=O)N[C@H](C=O)CC(=O)O)C(C)C [II-16, (S,S,S)-(3S)-[(1-{3-Methyl-(2S)-[(4-methyl-pyridine-3-carbonyl)-amino]-butyryl}-pyrrolidine-(2S)-carbonyl)-amino]-4-oxo-butyric acid] | < 10 | 21 to 30 |
| COc1cccc(C(=O)N[C@H](C(=O)N2[C@@H]3CC[C@@H](C3)[C@H]2C(=O)NC(C=O)CC(=O)O)C(C)(C)C)c1C (stereo in doubt) [II-55, (3S)-({2-[(2S)-(3-Methoxy-2-methyl-benzoylamino)-3,3-dimethyl-butyryl]-2-(1S,4R)-aza-bicyclo[2.2.1]heptane-(3S)-carbonyl}-amino)-4-oxo-butyric acid] | < 10 | < 10 |
| CC(=O)Nc1ccc(C(=O)N[C@H](C(=O)N2CCC[C@H]2C(=O)N[C@H](C=O)CC(=O)O)C(C)(C)C)c(Cl)c1 [II-43, (S,S,S)-(3S)-({1-[(2S)-(2-chloro-4-acetamido-benzoylamino)-3,3-dimethyl-butyryl]-pyrrolidine-(2S)-carbonyl}-amino)-4-oxo-butyric acid] | < 10 | < 10 |
| CC(C)[C@H](NC(=O)c1ccnc(Cl)c1Cl)C(=O)N1CCC[C@H]1C(=O)N[C@H](C=O)CC(=O)O [II-18, (S,S,S)-(3S)-[(1-{(2S)-[(2,3-Dichloro-pyridine-4-carbonyl)-amino]-3-methyl-butyryl}-pyrrolidine-(2S)-carbonyl)-amino]-4-oxo-butyric acid] | < 10 | 10 to 20 |
| Cc1ncccc1C(=O)N[C@H](C(=O)N1CCC[C@H]1C(=O)N[C@H](C=O)CC(=O)O)C(C)C [II-15, (S,S,S)-(3S)-[(1-{3-Methyl-(2S)-[(2-methyl-pyridine-3-carbonyl)-amino]-butyryl}-pyrrolidine-(2S)-carbonyl)-amino]-4-oxo-butyric acid] | < 10 | 21 to 30 |
| CC(=O)Nc1cccc(C(=O)N[C@H](C(=O)N2CCC[C@H]2C(=O)N[C@H](C=O)CC(=O)O)C(C)(C)C)c1C [II-42, (S,S,S)-(3S)-({1-[(2S)-(2-methyl-3-acetamido-benzoylamino)-3,3-dimethyl-butyryl]-pyrrolidine-(2S)-carbonyl}-amino)-4-oxo-butyric acid] | < 10 | 10 to 20 |
| CC(=O)Nc1ccc(C(=O)N[C@H](C(=O)N2[C@@H]3CC[C@@H](C3)[C@H]2C(=O)N[C@H](C=O)CC(=O)O)C(C)(C)C)cc1Cl (stereo in doubt) [II-62, (3S)-({2-[(2S)-(4-Acetylamino-3-chloro-benzoylamino)-3,3-dimethyl-butyryl]-2-(1S,4R)-aza-bicyclo[2.2.1]heptane-(3S)-carbonyl}-amino)-4-oxo-butyric acid] | < 10 | 10 to 20 |
| Cc1ccccc1C(=O)N[C@H](C(=O)N1CCC[C@H]1C(=O)N[C@H](C=O)CC(=O)O)C(C)C [II-3, (S,S,S)-(3S)-({1-[3-Methyl-(2S)-(2-methyl-benzoylamino)-butyryl]-pyrrolidine-(2S)-carbonyl}-amino)-4-oxo-butyric acid] | < 10 | < 10 |
| CC(=O)Nc1cccc(C(=O)N[C@H](C(=O)N2CCC[C@H]2C(=O)N[C@H](C=O)CC(=O)O)C(C)(C)C)c1Cl [II-41, (S,S,S)-(3S)-({1-[(2S)-(2-Chloro-3-acetamido-benzoylamino)-3,3-dimethyl-butyryl]-pyrrolidine-(2S)-carbonyl}-amino)-4-oxo-butyric acid] | < 10 | < 10 |

Second part, the molecule after the results:

| Ki (caspase-1) [nM] | Ki (caspase-8) [nM] | SMILES |
| --- | --- | --- |
| 10 to 20 | 10 to 20 | CC(C)(C)[C@H](NC(=O)c1nccc2ccccc12)C(=O)N1[C@@H]2CC[C@@H](C2)[C@H]1C(=O)N[C@H](C=O)CC(=O)O (stereo in doubt) [II-64, (3S)-({2-[(2S)-(Isoquinolin-1-ylcarbonylamino)-3,3-dimethyl-butyryl]-2-(1S,4R)-aza-bicyclo[2.2.1]heptane-(3S)-carbonyl}-amino)-4-oxo-butyric acid] |
| < 10 | 21 to 30 | O=C[C@H](CC(=O)O)NC(=O)[C@@H]1CCCN1C(=O)[C@H](CC(F)(F)F)NC(=O)c1ccccc1Cl [II-24, (S,S,S)-(3S)-({1-[(2S)-(2-Chloro-benzoylamino)-4,4,4-trifluoro-butyryl]-pyrrolidine-(2S)-carbonyl}-amino)-4-oxo-butyric acid] |
| < 10 | < 10 | Cc1ccsc1C(=O)N[C@H](C(=O)N1CCC[C@H]1C(=O)N[C@H](C=O)CC(=O)O)C(C)C [II-17, (S,S,S)-(3S)-[(1-{3-Methyl-(2S)-[(3-methyl-thiophene-2-carbonyl)-amino]-butyryl}-pyrrolidine-(2S)-carbonyl)-amino]-4-oxo-butyric acid] |
| < 10 | 21 to 30 | COc1ccc(C)c(C(=O)N[C@H](C(=O)N2CCC[C@H]2C(=O)N[C@H](C=O)CC(=O)O)C(C)C)c1 [II-22, (S,S,S)-(3S)-({1-[(2S)-(5-Methoxy-2-methyl-benzoylamino)-3-methyl-butyryl]-pyrrolidine-(2S)-carbonyl}-amino)-4-oxo-butyric acid] |
| < 10 | 10 to 20 | Cc1c(N)cccc1C(=O)N[C@H](C(=O)N1CCC[C@H]1C(=O)N[C@H](C=O)CC(=O)O)C(C)C [II-7, (S,S,S)-(3S)-({1-[(2S)-(3-Amino-2-methyl-benzoylamino)-3-methyl-butyryl]-pyrrolidine-(2S)-carbonyl}-amino)-4-oxo-butyric acid] |
| < 10 | < 10 | CC(C)(C)[C@H](NC(=O)c1cccc(O)c1Cl)C(=O)N1CCC[C@H]1C(=O)N[C@H](C=O)CC(=O)O [II-39, (S,S,S)-(3S)-({1-[(2S)-(2-Chloro-3-hydroxy-benzoylamino)-3,3-dimethyl-butyryl]-pyrrolidine-(2S)-carbonyl}-amino)-4-oxo-butyric acid] |
| < 10 | < 10 | CC(C)(C)[C@H](NC(=O)c1ccccc1Cl)C(=O)N1[C@@H]2CC[C@@H](C2)[C@H]1C(=O)NC(C=O)CC(=O)O (stereo in doubt) [II-56, (3S)-({2-[(2S)-(2-Chloro-benzoylamino)-3,3-dimethyl-butyryl]-2-(1S,4R)-aza-bicyclo[2.2.1]heptane-(3S)-carbonyl}-amino)-4-oxo-butyric acid] |

Source: patent US7652153B2, “Caspase inhibitors and uses thereof” (Vertex Pharmaceuticals Incorporated, priority 2004, dated 2010)
